Experimental data from PMC11050952 (Marine Drugs, 2024).
Several values for one entry are separate records, joined by “and”; a condition that tells them apart may be missing. Equal entries are not always repeated. Entries after “also recorded” stand apart in the source; their conditions may differ. Where two headings read alike, the source gives them in different places.

Tests used:
[1] = test system: Nav currents in Neuro-2a cells (voltage-gated sodium channels, VGSCs); assay type: cell-based, murine
Neuro-2a cells = details: cited from earlier work
[2] = read-out: IC50 (inhibition of Nav currents)

NC1=N[C@H](O)[C@H]2[C@H]3O[C@]4(O)O[C@@H]([C@@H](O)[C@@]2(N1)[C@@H]4O)[C@]3(O)CO [TTX, Tetrodotoxin]
Hill Slope [1]: 0.997 ± 0.068 and 0.910 ± 0.120 and 1.167 ± 0.204 and 0.801 ± 0.149 and 1.089 ± 0.097 | Reversibility of Nav current blockage [1]: could be reversed | TTX concentration giving 20% blockade (minimum detectable blockade) [1]: 0.5 ng/mL | Inhibition of Nav currents ([1]; 0.1 µM): completely inhibited; also recorded: complete inhibitions | IC50 ([1]; read-out: IC50 (blockade of Nav currents)): 6.4 nM | IC50 ([1]; read-out: IC50 Value): 4.93 nM and 5.02 nM and 5.12 nM and 4.26 nM and 6.38 nM

CCN(CC)CC(=O)Nc1c(C)cccc1C [Lidocaine, lidocaine]
IC50 [1, 2]: 717000 nM

CCCCNc1ccc(C(=O)OCCN(C)C)cc1 [tetracaine]
IC50 [1, 2]: 22500 nM

C[C@@H]1C[C@@H]2[C@@H](O)N=C(N)N[C@]23[C@H](O)C(=O)O[C@H]1[C@H]3O [5,6,11-trideoxyTTX]
Toxicity equivalency factor (TEF) (Neuro-2a cells): 0.011
